Values of other authors, collected in article PMC11728000, “Antitumor Activity and Multi-Target Mechanism of Phenolic Schiff Bases Bearing Methanesulfonamide Fragments: Cell Cycle Analysis and a Molecular Modeling Study” (International Journal of Molecular Sciences, 2024).

Assays:
CCRF-CEM = system: CCRF-CEM; parameters: method as in https://dtp.cancer.gov/dtpstandard/dwindex/index.jsp; settings: ref https://dtp.cancer.gov/dtpstandard/dwindex/index.jsp; cited from earlier work
MOLT-4 = system: MOLT-4; parameters: method as in https://dtp.cancer.gov/dtpstandard/dwindex/index.jsp; settings: ref https://dtp.cancer.gov/dtpstandard/dwindex/index.jsp; cited from earlier work
A549/ATCC = system: A549/ATCC; parameters: method as in https://dtp.cancer.gov/dtpstandard/dwindex/index.jsp; settings: ref https://dtp.cancer.gov/dtpstandard/dwindex/index.jsp; cited from earlier work
EKVX = system: EKVX; parameters: method as in https://dtp.cancer.gov/dtpstandard/dwindex/index.jsp; settings: ref https://dtp.cancer.gov/dtpstandard/dwindex/index.jsp; cited from earlier work
HOP-62 = system: HOP-62; parameters: method as in https://dtp.cancer.gov/dtpstandard/dwindex/index.jsp; settings: ref https://dtp.cancer.gov/dtpstandard/dwindex/index.jsp; cited from earlier work
NCI-H226 = system: NCI-H226; parameters: method as in https://dtp.cancer.gov/dtpstandard/dwindex/index.jsp; settings: ref https://dtp.cancer.gov/dtpstandard/dwindex/index.jsp; cited from earlier work
NCI-H23 = system: NCI-H23; parameters: method as in https://dtp.cancer.gov/dtpstandard/dwindex/index.jsp; settings: ref https://dtp.cancer.gov/dtpstandard/dwindex/index.jsp; cited from earlier work
NCI-H322M = system: NCI-H322M; parameters: method as in https://dtp.cancer.gov/dtpstandard/dwindex/index.jsp; settings: ref https://dtp.cancer.gov/dtpstandard/dwindex/index.jsp; cited from earlier work
COLO 205 = system: COLO 205; parameters: method as in https://dtp.cancer.gov/dtpstandard/dwindex/index.jsp; settings: ref https://dtp.cancer.gov/dtpstandard/dwindex/index.jsp; cited from earlier work
HCT-15 = system: HCT-15; parameters: method as in https://dtp.cancer.gov/dtpstandard/dwindex/index.jsp; settings: ref https://dtp.cancer.gov/dtpstandard/dwindex/index.jsp; cited from earlier work
HT29 = system: HT29; parameters: method as in https://dtp.cancer.gov/dtpstandard/dwindex/index.jsp; settings: ref https://dtp.cancer.gov/dtpstandard/dwindex/index.jsp; cited from earlier work
SW-620 = system: SW-620; parameters: method as in https://dtp.cancer.gov/dtpstandard/dwindex/index.jsp; settings: ref https://dtp.cancer.gov/dtpstandard/dwindex/index.jsp; cited from earlier work
SF-268 = system: SF-268; parameters: method as in https://dtp.cancer.gov/dtpstandard/dwindex/index.jsp; settings: ref https://dtp.cancer.gov/dtpstandard/dwindex/index.jsp; cited from earlier work
SNB-19 = system: SNB-19; parameters: method as in https://dtp.cancer.gov/dtpstandard/dwindex/index.jsp; settings: ref https://dtp.cancer.gov/dtpstandard/dwindex/index.jsp; cited from earlier work
U251 = system: U251; parameters: method as in https://dtp.cancer.gov/dtpstandard/dwindex/index.jsp; settings: ref https://dtp.cancer.gov/dtpstandard/dwindex/index.jsp; cited from earlier work
MALME-3M = system: MALME-3M; parameters: method as in https://dtp.cancer.gov/dtpstandard/dwindex/index.jsp; settings: ref https://dtp.cancer.gov/dtpstandard/dwindex/index.jsp; cited from earlier work
M14 = system: M14; parameters: method as in https://dtp.cancer.gov/dtpstandard/dwindex/index.jsp; settings: ref https://dtp.cancer.gov/dtpstandard/dwindex/index.jsp; cited from earlier work
SK-MEL-2 = system: SK-MEL-2; parameters: method as in https://dtp.cancer.gov/dtpstandard/dwindex/index.jsp; settings: ref https://dtp.cancer.gov/dtpstandard/dwindex/index.jsp; cited from earlier work
OVCAR-4 = system: OVCAR-4; parameters: method as in https://dtp.cancer.gov/dtpstandard/dwindex/index.jsp; settings: ref https://dtp.cancer.gov/dtpstandard/dwindex/index.jsp; cited from earlier work
OVCAR-5 = system: OVCAR-5; parameters: method as in https://dtp.cancer.gov/dtpstandard/dwindex/index.jsp; settings: ref https://dtp.cancer.gov/dtpstandard/dwindex/index.jsp; cited from earlier work
NCI/ADR-RES = system: NCI/ADR-RES; parameters: method as in https://dtp.cancer.gov/dtpstandard/dwindex/index.jsp; settings: ref https://dtp.cancer.gov/dtpstandard/dwindex/index.jsp; cited from earlier work
ACHN = system: ACHN; parameters: method as in https://dtp.cancer.gov/dtpstandard/dwindex/index.jsp; settings: ref https://dtp.cancer.gov/dtpstandard/dwindex/index.jsp; cited from earlier work
SN12C = system: SN12C; parameters: method as in https://dtp.cancer.gov/dtpstandard/dwindex/index.jsp; settings: ref https://dtp.cancer.gov/dtpstandard/dwindex/index.jsp; cited from earlier work
TK-10 = system: TK-10; parameters: method as in https://dtp.cancer.gov/dtpstandard/dwindex/index.jsp; settings: ref https://dtp.cancer.gov/dtpstandard/dwindex/index.jsp; cited from earlier work
DU-145 = system: DU-145; parameters: method as in https://dtp.cancer.gov/dtpstandard/dwindex/index.jsp; settings: ref https://dtp.cancer.gov/dtpstandard/dwindex/index.jsp; cited from earlier work
MCF-7 = system: MCF-7; parameters: method as in https://dtp.cancer.gov/dtpstandard/dwindex/index.jsp; settings: ref https://dtp.cancer.gov/dtpstandard/dwindex/index.jsp; cited from earlier work
MDA-MB-231/ATCC = system: MDA-MB-231/ATCC; parameters: method as in https://dtp.cancer.gov/dtpstandard/dwindex/index.jsp; settings: ref https://dtp.cancer.gov/dtpstandard/dwindex/index.jsp; cited from earlier work
[1] = system: Leukemia subpanel tumor cell lines; settings: cited from earlier work; for GI50: read-out: GI50, subpanel average, ref https://dtp.cancer.gov/dtpstandard/dwindex/index.jsp; for CC50: read-out: LC50, subpanel average, ref https://dtp.cancer.gov/dtpstandard/dwindex/index.jsp; for TGI, subpanel average: ref https://dtp.cancer.gov/dtpstandard/dwindex/index.jsp
[2] = system: NSC Lung Cancer subpanel tumor cell lines; settings: cited from earlier work; for CC50: read-out: LC50, subpanel average, ref https://dtp.cancer.gov/dtpstandard/dwindex/index.jsp; for TGI, subpanel average: ref https://dtp.cancer.gov/dtpstandard/dwindex/index.jsp
[3] = system: Colon Cancer subpanel tumor cell lines; settings: cited from earlier work; for GI50: read-out: GI50, subpanel average, ref https://dtp.cancer.gov/dtpstandard/dwindex/index.jsp; for CC50: read-out: LC50, subpanel average, ref https://dtp.cancer.gov/dtpstandard/dwindex/index.jsp; for TGI, subpanel average: ref https://dtp.cancer.gov/dtpstandard/dwindex/index.jsp
[4] = system: Ovarian Cancer subpanel tumor cell lines; settings: cited from earlier work; for GI50: read-out: GI50, subpanel average, ref https://dtp.cancer.gov/dtpstandard/dwindex/index.jsp; for CC50: read-out: LC50, subpanel average, ref https://dtp.cancer.gov/dtpstandard/dwindex/index.jsp; for TGI, subpanel average: ref https://dtp.cancer.gov/dtpstandard/dwindex/index.jsp
[5] = system: Prostate Cancer subpanel tumor cell lines; settings: cited from earlier work; for GI50: read-out: GI50, subpanel average, ref https://dtp.cancer.gov/dtpstandard/dwindex/index.jsp; for CC50: read-out: LC50, subpanel average, ref https://dtp.cancer.gov/dtpstandard/dwindex/index.jsp; for TGI, subpanel average: ref https://dtp.cancer.gov/dtpstandard/dwindex/index.jsp
[6] = system: 59 human cancer cell lines; settings: full panel mean-graph midpoint, ref https://dtp.cancer.gov/dtpstandard/dwindex/index.jsp, cited from earlier work; for GI50: read-out: GI50 MG-MID; for CC50: read-out: LC50 MG-MID
SF-539 = system: SF-539; parameters: method as in https://dtp.cancer.gov/dtpstandard/dwindex/index.jsp; settings: ref https://dtp.cancer.gov/dtpstandard/dwindex/index.jsp; cited from earlier work
LOX IMVI = system: LOX IMVI; parameters: method as in https://dtp.cancer.gov/dtpstandard/dwindex/index.jsp; settings: ref https://dtp.cancer.gov/dtpstandard/dwindex/index.jsp; cited from earlier work
MDA-MB-435 = system: MDA-MB-435; parameters: method as in https://dtp.cancer.gov/dtpstandard/dwindex/index.jsp; settings: ref https://dtp.cancer.gov/dtpstandard/dwindex/index.jsp; cited from earlier work
UACC-62 = system: UACC-62; parameters: method as in https://dtp.cancer.gov/dtpstandard/dwindex/index.jsp; settings: ref https://dtp.cancer.gov/dtpstandard/dwindex/index.jsp; cited from earlier work
HS 578T = system: HS 578T; parameters: method as in https://dtp.cancer.gov/dtpstandard/dwindex/index.jsp; settings: ref https://dtp.cancer.gov/dtpstandard/dwindex/index.jsp; cited from earlier work

SMILES: CNC(=O)c1cc(Oc2ccc(NC(=O)Nc3ccc(Cl)c(C(F)(F)F)c3)cc2)ccn1 [Sorafenib, sorafenib]
- GI50 (CCRF-CEM): 1.99 µM
- GI50 (MOLT-4): 3.16 µM
- GI50 (A549/ATCC): 3.16 µM
- GI50 (EKVX): 2.51 µM
- GI50 (HOP-62): 1.99 µM
- GI50 (NCI-H226): 1.99 µM
- GI50 (NCI-H23): 1.99 µM
- GI50 (NCI-H322M): 2.51 µM
- GI50 (COLO 205): 1.99 µM
- GI50 (HCT-15): 2.51 µM
- GI50 (HT29): 1.99 µM
- GI50 (SW-620): 2.51 µM
- GI50 (SF-268): 2.51 µM
- GI50 (SNB-19): 3.16 µM
- GI50 (U251): 1.99 µM
- GI50 (MALME-3M): 1.99 µM
- GI50 (M14): 1.99 µM
- GI50 (SK-MEL-2): 1.99 µM
- GI50 (OVCAR-4): 3.16 µM
- GI50 (OVCAR-5): 3.16 µM
- GI50 (NCI/ADR-RES): 2.51 µM
- GI50 (ACHN): 2.51 µM
- GI50 (SN12C): 2.51 µM
- GI50 (TK-10): 3.98 µM
- GI50 (DU-145): 3.16 µM
- GI50 (MCF-7): 2.51 µM
- GI50 (MDA-MB-231/ATCC): 1.26 µM
- GI50 [1]: 1.91 µM
- CC50 [1]: > 100 µM
- TGI, subpanel average [1]: 42.12 µM
- CC50 [2]: 49.1 µM
- TGI, subpanel average [2]: 7.99 µM
- GI50 [3]: 2.19 µM
- CC50 [3]: 38.1 µM
- TGI, subpanel average [3]: 7.94 µM
- GI50 [4]: 2.89 µM
- CC50 [4]: 71.3 µM
- TGI, subpanel average [4]: 14.43 µM
- GI50 [5]: 2.58 µM
- CC50 [5]: 69.9 µM
- TGI, subpanel average [5]: 10.27 µM
- TGI MG-MID [6]: 9.11 µM
- GI50 [6]: 2.33 µM
- CC50 [6]: 43.1 µM

SMILES: Cc1ccc(-c2cc(C(F)(F)F)nn2-c2ccc(S(N)(=O)=O)cc2)cc1 [Celecoxib, celecoxib]
- GI50 (CCRF-CEM): 12.6 µM
- GI50 (MOLT-4): 15.8 µM
- GI50 (A549/ATCC): 15.8 µM
- GI50 (EKVX): 19.9 µM
- GI50 (HOP-62): 63.1 µM
- GI50 (NCI-H23): 15.8 µM
- GI50 (NCI-H322M): 19.9 µM
- GI50 (COLO 205): 15.8 µM
- GI50 (HCT-15): 15.8 µM
- GI50 (HT29): 15.8 µM
- GI50 (SW-620): 15.8 µM
- GI50 (SF-268): 15.8 µM
- GI50 (SF-539): 19.9 µM
- GI50 (SNB-19): 19.9 µM
- GI50 (U251): 15.8 µM
- GI50 (LOX IMVI): 19.9 µM
- GI50 (MALME-3M): 19.9 µM
- GI50 (M14): 63.1 µM
- GI50 (MDA-MB-435): 15.8 µM
- GI50 (SK-MEL-2): 15.8 µM
- GI50 (UACC-62): 15.8 µM
- GI50 (OVCAR-4): 12.6 µM
- GI50 (OVCAR-5): 19.9 µM
- GI50 (NCI/ADR-RES): 15.8 µM
- GI50 (ACHN): 15.8 µM
- GI50 (SN12C): 15.8 µM
- GI50 (TK-10): 19.9 µM
- GI50 (DU-145): 15.8 µM
- GI50 (MCF-7): 15.8 µM
- GI50 (MDA-MB-231/ATCC): 15.8 µM
- GI50 (HS 578T): 19.9 µM
- GI50 [1]: 12.3 µM
- CC50 [1]: 67.1 µM
- TGI, subpanel average [1]: 29.27 µM
- GI50 ([2]; read-out: GI50, subpanel average, ref https://dtp.cancer.gov/dtpstandard/dwindex/index.jsp): 25.1 µM
- CC50 [2]: 67.1 µM
- TGI, subpanel average [2]: 41.93 µM
- GI50 [3]: 20.7 µM
- CC50 [3]: 66.5 µM
- TGI, subpanel average [3]: 41.39 µM
- GI50 [4]: 17.1 µM
- CC50 [4]: 65.9 µM
- TGI, subpanel average [4]: 34.20 µM
- GI50 [5]: 14.2 µM
- CC50 [5]: 57 µM
- TGI, subpanel average [5]: 28.37 µM
- TGI MG-MID [6]: 34.0 µM
- GI50 [6]: 17.5 µM
- CC50 [6]: 63.3 µM
